In the supplement of paper PMC9938120:

Columns and labels:
Assay in all cases: drug sensitivity score (DSS3, normalised partial AUC of % inhibition dose-response) (DSS (score)); higher = more sensitive (stronger inhibition of viability); extreme values may be limits of the assay
FMOC22 = patient-derived mucinous ovarian cancer cells; settings: 72 h; library: FO5A; assay format: 2D, 384-well, CellTiter-Glo
Procedure, shortened: (§1)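 Cells were dispensed onto 384-well flat clear-bottom plates already holding compounds at five concentrations over a 10,000-fold range, using patient-derived ovarian cancer cells at passage under 10. Incubation lasted 72 h at 37 °C in 5% CO2, after which CellTiter-Glo viability data were processed in Breeze. Higher drug sensitivity scores, each a partial area under the percent-inhibition dose-response curve divided by the log of the upper asymptote, mean more sensitive cells.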

FMOC02_3 = patient-derived low-grade serous ovarian cancer cells; settings: 72 h; library: FO5A; assay format: 2D, 384-well, CellTiter-Glo
Procedure, shortened: as §1

FMOC25_2 = patient-derived low-grade serous ovarian cancer cells; settings: 72 h; library: FO5A; assay format: 2D, 384-well, CellTiter-Glo
Procedure, shortened: as §1

FMOC06 = patient-derived mucinous ovarian cancer cells; settings: 72 h; library: FO5A; assay format: 2D, 384-well, CellTiter-Glo
Procedure, shortened: as §1

FMOC09 = patient-derived high-grade serous ovarian cancer cells; settings: 72 h; library: FO5A; assay format: 2D, 384-well, CellTiter-Glo
Procedure, shortened: as §1

FMOC14 = patient-derived high-grade serous ovarian cancer cells; settings: 72 h; library: FO5A; assay format: 2D, 384-well, CellTiter-Glo
Procedure, shortened: as §1

FMOC24 = patient-derived high-grade serous ovarian cancer cells; settings: 72 h; library: FO5A; assay format: 2D, 384-well, CellTiter-Glo
Procedure, shortened: as §1

FMOC03 = patient-derived mucinous ovarian cancer cells; settings: 72 h; library: FO5A; assay format: 2D, 384-well, CellTiter-Glo
Procedure, shortened: as §1

FMOC25_1 = patient-derived low-grade serous ovarian cancer cells; settings: 72 h; library: FO4B; assay format: 2D, 384-well, CellTiter-Glo
Procedure, shortened: as §1

FMOC02_2 = patient-derived low-grade serous ovarian cancer cells; settings: 72 h; library: FO5A; assay format: 2D, 384-well, CellTiter-Glo
Procedure, shortened: as §1

Compound	drug sensitivity score (FMOC22)	drug sensitivity score (FMOC02_3)	drug sensitivity score (FMOC25_2)	drug sensitivity score (FMOC06)	drug sensitivity score (FMOC09)	drug sensitivity score (FMOC14)	drug sensitivity score (FMOC24)	drug sensitivity score (FMOC03)	drug sensitivity score (FMOC25_1)	drug sensitivity score (FMOC02_2)
CC[C@H](NC(=O)[C@H](C)NC)C(=O)N1C[C@@H](O)C[C@H]1Cc1c(-c2[nH]c3cc(F)ccc3c2C[C@@H]2C[C@H](O)CN2C(=O)[C@H](CC)NC(=O)[C@H](C)NC)[nH]c2cc(F)ccc12 [Birinapant]	0	0	8.3	3.9	0	4.5	21.2	0	1.1	0
CC(C)C[C@H](NC(=O)[C@H](Cc1ccccc1)NC(=O)c1cnccn1)B(O)O [Bortezomib]	28.4	24.9	30.1	26.2	20.4	28.5	30.8	28.2	27.2	28.8
COc1cc(Nc2c(C#N)cnc3cc(OCCCN4CCN(C)CC4)c(OC)cc23)c(Cl)cc1Cl [Bosutinib]	6.4	14.1	13.2	5.2	9.2	6.6	7.55	9.3	3.7	14.6
Nc1cc(C(F)(F)F)c(-c2cc(N3CCOCC3)nc(N3CCOCC3)n2)cn1 [Buparlisib]	6.3	13.3	10.8	8.7	6.7	4.2	2.25	8.6	11.5	11.7
CN(C)c1cc2c(cc1Sc1nc3c(N)nccc3n1CCNCC(C)(C)C)OCO2 [CUDC-305]	8.9	13.9	15.2	9.8	9.7	9.3	8.05	16.1	12.2	12.9
COc1ccc(-c2nc(N3CCOCC3)c3sc(CN(C)c4ncc(C(=O)NO)cn4)cc3n2)cn1 [CUDC-907]	31.1	33.2	29.1	31.2	18.4	31.4	33.7	32.8	29.2	34.3
CO[C@H]1C(=O)[C@]2(C)[C@@H](OC)C[C@H]3OC[C@@]3(OC(C)=O)[C@H]2[C@H](OC(=O)c2ccccc2)[C@]2(O)C[C@H](OC(=O)[C@H](O)[C@@H](NC(=O)OC(C)(C)C)c3ccccc3)C(C)=C1C2(C)C [Cabazitaxel]	15.2	19.9	17.3	11.3	13.5	0	0.3	16	12	12.6
C=CC(=O)Nc1cc2c(Nc3ccc(F)c(Cl)c3)ncnc2cc1OCCCN1CCOCC1 [Canertinib]	8	18.7	14.6	9	20.8	9.5	5.3	20.6	10	21.8
O=C(O)C1(C(=O)O)CCC1.[NH2-].[NH2-].[Pt+2] [Carboplatin]	2.8	5	2.8	1.3	9.1	4.9	8.3	0.6	1.3	4.9
CC(C)C[C@H](NC(=O)[C@H](CCc1ccccc1)NC(=O)CN1CCOCC1)C(=O)N[C@@H](Cc1ccccc1)C(=O)N[C@@H](CC(C)C)C(=O)[C@@]1(C)CO1 [Carfilzomib]	20.1	24.6	25.5	22.4	21.6	23.6	27.4	18	21.6	18.7
CCS(=O)(=O)N1CCN(c2ccc(Nc3ncc(C(N)=O)c(NC4CC4)n3)cc2)CC1 [Cerdulatinib]	0	0	10.6	0	0	3.4	3.3	0	4	0
CCN(CC)CCCC(C)Nc1ccnc2cc(Cl)ccc12 (stereo not given) [Chloroquine]	5.6	9.4	7	7.2	6	7.6	10.2	7.8	7.1	10.1
CC(C)[C@H]1C(=O)N[C@@H](CCCNC(=N)N)C(=O)NCC(=O)N[C@@H](CC(=O)O)C(=O)N[C@H](Cc2ccccc2)C(=O)N1C [Cilengitide]	0	1.3	0	0	4.3	1.9	2.4	0.1	0	0
N.N.[Cl][Pt][Cl] [Cisplatin]	6.3	9.1	6	6	16.6	3.7	18.6	4	7.3	9.2
Nc1nc(Cl)nc2c1ncn2[C@@H]1O[C@H](CO)[C@@H](O)[C@@H]1F [Clofarabine]	10.5	13.7	16.5	5.3	7.8	0	4.9	4.1	8.5	8.9
CCN(CC)CCOc1ccc(C(=C(Cl)c2ccccc2)c2ccccc2)cc1 [Clomifene]	4.8	9.1	7.2	5.6	5	5	9.9	7	4.7	8.2
